Experiment [1] concerns Tat driven HIV LTR expression. The experiment is described as follows: Tat-driven HIV LTR (TAR) luciferase reporter assay in transfected HeLa cells. The experiment is classed as cell-based. The following applies: for inhibitory activity of Tat activation of HIV LTR compared with wild-type TOE1: HeLa cells, luciferase, FIG. 7. Here is the method: FIG. 3: TOE1 inhibits Tat driven HIV LTR expression. HeLa cells were seeded into 24 wells plates at 30,000 cells/well and then transfected the following day with the indicated constructs at 200 ng total DNA+0.5 μl of FuGENE™ (Roche)/well. 24 hours after transfection the cells were lysed and the luciferase expression was determined by reading Relative Bioluminescent Units (RLU). This graph is representative of multiple experiments performed in triplicates.
FIG. 7: TOE1 processing by caspase-1 enhances its inhibition of HIV LTR transactivation by Tat. (A) HeLa cells were transfected with the indicated constructs, and then luciferase assay was performed as described above. […] All transfection and measurements were performed in triplicate.
FIG. 9: Defining the minimal TOE1 region able to inhibit Tat-induced HIV LTR activation. […] Results are expressed as percentage activation of the HIV LTR referenced to Tat. All transfections and measurements were performed in triplicate, and results are representative of multiple independent experiments.
To test for a potential interaction between TOE1 and Tat, we assessed the effect of TOE1 expression on Tat driven transactivation of the TAR element. We employed a luciferase expression system controlled by the HIV LTR including the TAR sequence.
A general note: Reporter assays use an easily measured gene product as a stand-in for the process of interest.

Experiment [2] concerns Tat-driven HIV LTR activity. The experiment is described as follows: Co-culture of transfected 293T cells with HeLa cells carrying HIV LTR reporter and Tat. The class given is cell-based. Conditions: 293T transfected with construct, co-cultured 24 hours with HeLa (HIV LTR + Tat), FIG. 11. Here is the method:
FIG. 11. TOE1 can be secreted and inhibits HIV LTR in neighboring cells. HeLa cells were transfected with either HIV LTR alone, or together with Tat as indicated. Separately, 293T cells were transfected with either control empty vector (C), full length TOE1 (TOE1), or a deletion mutant comprising amino acids 283-363 (SEQ ID NO:13) containing the basic region located at 335-348 (283-363). 24 hours following transfection, the transfected 293T cells were placed in co-culture with the transfected HeLa cells to provide the samples. 24 hours after co-culture, samples were assayed for Tat-driven HIV LTR activity.
To determine if TOE1 could be secreted and subsequently taken up by other neighboring cells, we performed co-culture experiments of cells transfected with the HIV LTR reporter and Tat protein in one cell type and either full length TOE1 or the potential protein transduction domain of TOE1 comprising amino acids 283-363 (SEQ ID NO:13) in another cell type. […] Therefore, a minimal domain of TOE1, comprising the basic stretch of amino acids at position 335-347 (SEQ ID NO:15), was able to function as a protein transduction domain as well as an effective inhibitor of Tat transcriptional activation.

For the next experiment, the target named is T1, caspase-1 (Homo sapiens, UniProt P29466).
T1 construct: purchased Calbiochem
T1 sequence (P29466 120-297 limits assumed): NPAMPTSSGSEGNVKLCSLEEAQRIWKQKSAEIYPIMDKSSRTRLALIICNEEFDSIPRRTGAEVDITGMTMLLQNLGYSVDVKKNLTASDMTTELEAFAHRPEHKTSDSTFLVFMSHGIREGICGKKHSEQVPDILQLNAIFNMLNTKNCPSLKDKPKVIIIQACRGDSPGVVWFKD
In words: In vitro digestion of immunoprecipitated TOE1 with recombinant caspase-1, Western blot. The following applies: caspase-1 incubation 4 hours at 37° C., FIG. 4. The experiment is classed as biochemical. Here is the method:
FIG. 4: TOE1 is a substrate for caspase-1. (A) Endogenously expressed TOE1 was immunoprecipitated from a lysate of Jurkat cells using the rabbit polyclonal α-TOE1 antibody or pre-immune serum (control=C) and ProteinA/Sepharose™ beads. Immunoprecipitates complexed beads were then incubated with 5 units of recombinant caspase-1 (from Calbiochem) or control buffer, as indicated, for 4 hours at 37° C., and then separated on a 12% Acrylamide/SDS gel and transferred on a PVDF membrane. 50 kDa, 40 kDa and 30 kDa fragments are visible after probing the blot with the monoclonal α-TOE1 antibody. (B) Cell lysates from cells transfected with a TOE1 expression construct were subjected to immunoprecipitation with the rabbit α-TOE1 antibody and ProteinA/Sepharose™ beads.
Since, as described earlier, CAF activity is reported to be dependent upon proteolytic activity, we decided to explore the possibility that TOE1 is a protease substrate. […] The software predicts a single cleavage for the tetrapeptide FTAD at position 214-217 of TOE1. We considered this potential cleavage to warrant further study for several reasons. […] Under our experimental conditions we observed processing by casapse-1 generating fragments of 50, 40, and 30 kDa as detected with a monoclonal anti-TOE1 antibody whose target epitope we have mapped to residues 218-282 (FIG. 4A). […]
A general note: In western blotting, separated proteins are transferred to a membrane and probed.

“Also recorded” adds a separate entry of the source.

For “335-363 (KRRRRRRREKRKRALLNLPGTQTSGEAKD; K335/D363 Deletion mutant of TOE1)”, the “inhibition of Tat activation of the HIV LTR by TOE1 deletion mutants” value in experiment [1] (transfected deletion mutants, FIG. 9) was “significantly inhibiting”.

D195/282A: the “inhibitory activity of Tat activation of HIV LTR compared with wild-type TOE1” value in experiment [1] is given as “less effective than wild type TOE1; also recorded: significantly less effective”.

For “TOE1: human TOE1 (target of EGR1) protein, full length, 510 amino acids”, the “effect on the LTR in the absence of Tat” value in experiment [1] (HIV LTR luciferase, no Tat) was “did not have any effect”. In addition, the “reduction of Tat transactivation potential” value in experiment [1] (TOE1 coexpressed with Tat, HIV LTR incl. TAR luciferase, different experiments (FIG. 3)) is recorded as 50-80%. For the same substance, the “inhibition of Tat activation of the HIV LTR in neighboring cells” value in experiment [2] is reported as “effectively inhibiting”.

Consider YVAD-CHO, for which the “inhibition of TOE1 processing by caspase-1” value on caspase-1 is listed as “completely prevents the processing; also recorded: processing was inhibited”.

On to delN282, for which, in experiment [1], the “inhibitory activity of Tat activation of HIV LTR compared with wild-type TOE1” value is on record as “more efficient inhibitor; also recorded: greater inhibition than wild-type TOE1”.

(Values after patent publication US9422350B2, “Target of EGR1 (TOE1) polypeptides for inhibition of HIV” (priority 2010, dated 2016).)
